From patent US11344549B2 (priority 2017, dated 2022)

Tests used:
JAK1 kinase = JAK1 kinase (Homo sapiens (Human), UniProt P23458); details: read-out: JAK1 IC50
JAK2 kinase = JAK2 kinase (Homo sapiens (Human), UniProt O60674); details: read-out: JAK2 IC50
Sequence of JAK2 kinase (O60674 826-1132): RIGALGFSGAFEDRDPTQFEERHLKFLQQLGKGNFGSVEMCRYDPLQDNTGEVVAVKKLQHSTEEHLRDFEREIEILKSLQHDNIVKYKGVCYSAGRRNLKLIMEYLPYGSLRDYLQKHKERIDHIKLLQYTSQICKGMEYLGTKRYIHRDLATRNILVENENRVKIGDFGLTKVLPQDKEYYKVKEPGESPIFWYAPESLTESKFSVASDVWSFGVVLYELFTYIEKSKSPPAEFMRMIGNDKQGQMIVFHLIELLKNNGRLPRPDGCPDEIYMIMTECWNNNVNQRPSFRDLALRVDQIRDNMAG

Sequence of JAK1 kinase (P23458 850-1154): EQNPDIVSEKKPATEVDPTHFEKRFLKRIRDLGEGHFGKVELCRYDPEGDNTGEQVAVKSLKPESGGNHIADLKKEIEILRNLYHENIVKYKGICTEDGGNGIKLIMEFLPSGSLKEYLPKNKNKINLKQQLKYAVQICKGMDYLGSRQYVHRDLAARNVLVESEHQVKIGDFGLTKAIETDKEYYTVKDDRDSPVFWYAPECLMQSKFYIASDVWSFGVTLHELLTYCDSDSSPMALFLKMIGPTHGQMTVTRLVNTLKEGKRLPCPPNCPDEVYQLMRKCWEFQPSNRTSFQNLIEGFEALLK

Structure (SMILES)	IC50 (JAK1 kinase)	IC50 (JAK2 kinase)
C=C(C)CNc1nc(Nc2cnn(C3CCOCC3)c2)ncc1C(N)=O [Example 232, 4-((2-methylallyl)amino)-2-((1-(tetrahydro-2H-pyran-4-yl)-1H-pyrazol-4-yl)amino)pyrimidin-5-carboxamide]	34.4 nM	2 nM
CCn1cc(Nc2ncc(C(N)=O)c(NCc3c(F)cccc3OC)n2)cn1 [Example 150, 4-[(2-fluoro-6-methoxybenzyl)amino]-2-[(1-ethyl-1H-pyrazol-4-yl)amino]pyrimidin-5-carboxamide]	3.22 nM	–
CC(C)(C)n1cc(Nc2ncc(C(N)=O)c(NCC3CC=CC3)n2)cn1 [Example 236, 2-((1-(tert-butyl)-1H-pyrazol-4-yl)amino)-4-((cyclopent-3-en-1-ylmethyl)amino)pyrimidin-5-carboxamide]	7.6 nM	2.6 nM
NC(=O)c1cnc(Nc2cnn(C3CC3)c2)nc1NCc1c(F)cccc1F [Example 134, 4-[(2,6-difluoro-benzyl)amino]-2-[(1-cyclopropyl-1H-pyrazol-4-yl)amino]pyrimidin-5-carboxamide]	–	1.19 nM
Cn1cc(Nc2ncc(C(N)=O)c(NCCCCCO)n2)cn1 [Example 8, 4-((5-hydroxypentyl)amino)-2-((1-methyl-1H-pyrazol-4-yl)amino)pyrimidin-5-carboxamide]	80.3 nM	–
COc1cccc(F)c1CNc1nc(Nc2cnn(C(C)C)c2)ncc1C(N)=O [Example 151, 4-[(2-fluoro-6-methoxybenzyl)amino]-2-[(1-isopropyl-1H-pyrazol-4-yl)amino]pyrimidin-5-carboxamide]	2.77 nM	0.61 nM
C=CCNc1nc(Nc2cnn(C(C)(C)C)c2)ncc1C(N)=O [Example 238, 4-(allylamino)-2-((1-(tert-butyl)-1H-pyrazol-4-yl)amino)pyrimidin-5-carboxamide]	11.5 nM	3.6 nM
CC(C)(O)Cn1cc(Nc2ncc(C(N)=O)c(NCc3c(F)cccc3F)n2)cn1 [Example 145, 4-[(2,6-difluoro-benzyl)amino]-2-[[1-(2-hydroxy-2-methylpropyl)-1H-pyrazol-4-yl]amino]pyrimidin-5-carboxamide]	20.3 nM	2.08 nM
COc1cccc(F)c1CNc1nc(Nc2cnn(C)c2)ncc1C(N)=O [Example 3, 4-((2-fluoro-6-methoxybenzyl)amino)-2-((1-methyl-1H-pyrazol-4-yl)amino)pyrimidin-5-carboxamide]	2.81 nM	0.57 nM
Cn1cc(Nc2ncc(C(N)=O)c(NCc3c(Cl)cccc3Cl)n2)cn1 [Example 5, 4-((2,6-dichlorobenzyl)amino)-2-((1-methyl-1H-pyrazol-4-yl)amino)pyrimidin-5-carboxamide]	23.4 nM	–
COCCn1cc(Nc2ncc(C(N)=O)c(NCc3c(F)cccc3OC)n2)cn1 [Example 7, 4-((2-fluoro-6-methoxybenzyl)amino)-2-((1-(2-methoxyethyl)-1H-pyrazol-4-yl)amino)pyrimidin-5-carboxamide]	9.18 nM	1.01 nM
NC(=O)c1cnc(Nc2cnn(C3CCC3)c2)nc1NCc1c(F)cccc1F [Example 135, 4-[(2,6-difluoro-benzyl)amino]-2-[(1-cyclobutyl-1H-pyrazol-4-yl)amino]pyrimidin-5-carboxamide]	30.3 nM	0.61 nM
NC(=O)c1cnc(Nc2cnn(CC3CCCO3)c2)nc1NCc1c(F)cccc1F (centres unmarked) [Example 138, 4-[(2,6-difluoro-benzyl)amino]-2-[[1-((tetrahydro-furan-2-yl)methyl)-1H-pyrazol-4-yl]amino]pyrimidin-5-carboxamide]	88.9 nM	1.24 nM
C=CCCNc1nc(Nc2cnn(C(C)(C)C)c2)ncc1C(N)=O [Example 228, 4-(but-3-en-1-ylamino)-2-((1-(tert-butyl)-1H-pyrazol-4-yl)amino)pyrimidin-5-carboxamide]	–	13.9 nM
CC(C)=CCCCNc1nc(Nc2cnn(C(C)(C)C)c2)ncc1C(N)=O [Example 245, 2-((1-tert-butyl-1H-pyrazol-4-yl)amino)-4-((5-methylhex-4-en-1-yl)amino)pyrimidin-5-carboxamide]	40.8 nM	16.9 nM
CC(C)C/C=C/CNc1nc(Nc2cnn(C(C)(C)C)c2)ncc1C(N)=O [Example 246, (E)-2-((1-tert-butyl-1H-pyrazol-4-yl)amino)-4-((5-methylhex-2-en-1-yl)amino)pyrimidin-5-carboxamide]	345 nM	42.5 nM

Structure (SMILES)	IC50 (JAK1 kinase)	IC50 (JAK2 kinase)
COCCn1cc(Nc2ncc(C(N)=O)c(NCc3c(F)cccc3F)n2)cn1 [Example 6, 4-((2,6-difluorobenzyl)amino)-2-((1-(2-methoxyethyl)-1H-pyrazol-4-yl)amino)pyrimidin-5-carboxamide]	29.9 nM	1.27 nM
Cc1cccc(C)c1CNc1nc(Nc2cnn(CCO)c2)ncc1C(N)=O [Example 174, 4-[(2,6-dimethyl-benzyl)amino]-2-[[1-(2-hydroxy-ethyl)-1H-pyrazol-4-yl]amino]pyrimidin-5-carboxamide]	54.7 nM	3.06 nM
CC(=O)N1CCC(CCNc2nc(Nc3cnn(C)c3)ncc2C(N)=O)CC1 [Example 12, 4-((2-(1-acetylpiperidin-4-yl)ethyl)amino)-2-((1-methyl-1H-pyrazol-4-yl)amino)pyrimidin-5-carboxamide]	352 nM	–
C=C(C)CCCNc1nc(Nc2cnn(C(C)(C)C)c2)ncc1C(N)=O [Example 244, 2-((1-tert-butyl-1H-pyrazol-4-yl)amino)-4-((4-methylpent-4-en-1-yl)amino)pyrimidin-5-carboxamide]	10.8 nM	3 nM
CC(C)=CCNc1nc(Nc2cnn(C(C)(C)C)c2)ncc1C(N)=O [Example 230, 2-((1-(tert-butyl)-1H-pyrazol-4-yl)amino)-4-((3-methylbut-2-en-1-yl)amino)pyrimidin-5-carboxamide]	28.1 nM	1.7 nM
NC(=O)c1cnc(Nc2cnn(C3CCOCC3)c2)nc1NCc1c(F)cccc1F [Example 137, 4-[(2,6-difluoro-benzyl)amino]-2-[[1-(tetra hydro-2H-pyran-4-yl)-1H-pyrazol-4-yl)amino]pyrimidin-5-carboxamide]	16.4 nM	0.27 nM
C=CCCNc1nc(Nc2cnn(C3CCOCC3)c2)ncc1C(N)=O [Example 234, 4-(but-3-en-1-ylamino)-2-((1-(tetrahydro-2H-pyran-4-yl)-1H-pyrazol-4-yl)amino)pyrimidin-5-carboxamide]	31 nM	1.2 nM
COc1ccccc1CNc1nc(Nc2cnn(C)c2)ncc1C(N)=O [Example 2, 4-((2-methoxybenzyl)amino)-2-((1-methyl-1H-pyrazol-4-yl)amino)pyrimidin-5-carboxamide]	2.53 nM	2.19 nM
C=C(C)CNc1nc(Nc2cnn(C(C)(C)C)c2)ncc1C(N)=O [Example 229, 2-((1-tert-butyl-1H-pyrazol-4-yl)amino)-4-((2-methylallyl)amino)pyrimidin-5-carboxamide]	–	2.8 nM
COc1ccccc1CNc1nc(Nc2cnn(CCO)c2)ncc1C(N)=O [Example 172, 4-[(2-methoxybenzyl)amino]-2-[[1-(2-hydroxyethyl)-1H-pyrazol-4-yl]amino]pyrimidin-5-carboxamide]	15.6 nM	0.95 nM
C=C(C)CCNc1nc(Nc2cnn(C(C)(C)C)c2)ncc1C(N)=O [Example 242, 2-((1-tert-butyl-1H-pyrazol-4-yl)amino)-4-((3-methylbut-3-en-1-yl)amino)pyrimidin-5-carboxamide]	8 nM	1.5 nM
CC(C)=CCNc1nc(Nc2cnn(C3CCOCC3)c2)ncc1C(N)=O [Example 233, 4-((3-methylbut-2-en-1-yl)amino)-2-((1-(tetrahydro-2H-pyran-4-yl)-1H-pyrazol-4-yl)amino)pyrimidin-5-carboxamide]	6.5 nM	0.9 nM
CCn1cc(Nc2ncc(C(N)=O)c(NCc3c(F)cccc3F)n2)cn1 [Example 132, 4-[(2,6-difluoro-benzyl)amino]-2-[(1-ethyl-1H-pyrazol-4-yl)amino]pyrimidin-5-carboxamide]	14.3 nM	0.51 nM
CC(C)n1cc(Nc2ncc(C(N)=O)c(NCc3c(F)cccc3F)n2)cn1 [Example 133, 4-[(2,6-difluoro-benzyl)amino]-2-[(1-isopropyl-1H-pyrazol-4-yl)amino]pyrimidin-5-carboxamide]	22.8 nM	0.47 nM
CC(=O)N1CCC(CNc2nc(Nc3cnn(C)c3)ncc2C(N)=O)CC1 [Example 11, 4-(((1-acetylpiperidin-4-yl)methyl)amino)-2-((1-methyl-1H-pyrazol-4-yl)amino)pyrimidin-5-carboxamide]	–	33.3 nM
Cn1cc(Nc2ncc(C(N)=O)c(NCc3ccccc3)n2)cn1 [Example 1, 4-benzylamino-2-((1-methyl-1H-pyrazol-4-yl)amino)pyrimidin-5-carboxamide]	84.7 nM	9.5 nM
